In experiment [1] the target is Mu-type opioid receptor (Rattus norvegicus) (UniProt P33535).
Experiment [2] deals with Substance-P receptor (Cavia porcellus) (UniProt P30547). The note with it: Hartley, Ileum.
Chain of Substance-P receptor (Cavia porcellus) (P30547 whole entry): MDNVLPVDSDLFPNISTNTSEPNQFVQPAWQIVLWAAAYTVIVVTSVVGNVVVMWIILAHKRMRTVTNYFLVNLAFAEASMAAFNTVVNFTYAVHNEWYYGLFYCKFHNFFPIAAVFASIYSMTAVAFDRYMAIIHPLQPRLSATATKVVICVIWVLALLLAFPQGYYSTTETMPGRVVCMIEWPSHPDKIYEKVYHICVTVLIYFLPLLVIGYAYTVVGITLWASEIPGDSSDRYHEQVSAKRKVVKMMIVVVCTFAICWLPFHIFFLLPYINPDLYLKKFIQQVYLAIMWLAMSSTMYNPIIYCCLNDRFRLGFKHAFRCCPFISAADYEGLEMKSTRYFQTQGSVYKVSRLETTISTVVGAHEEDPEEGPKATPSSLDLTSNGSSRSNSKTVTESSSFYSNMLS

Chain of Mu-type opioid receptor (Rattus norvegicus) (P33535 whole entry): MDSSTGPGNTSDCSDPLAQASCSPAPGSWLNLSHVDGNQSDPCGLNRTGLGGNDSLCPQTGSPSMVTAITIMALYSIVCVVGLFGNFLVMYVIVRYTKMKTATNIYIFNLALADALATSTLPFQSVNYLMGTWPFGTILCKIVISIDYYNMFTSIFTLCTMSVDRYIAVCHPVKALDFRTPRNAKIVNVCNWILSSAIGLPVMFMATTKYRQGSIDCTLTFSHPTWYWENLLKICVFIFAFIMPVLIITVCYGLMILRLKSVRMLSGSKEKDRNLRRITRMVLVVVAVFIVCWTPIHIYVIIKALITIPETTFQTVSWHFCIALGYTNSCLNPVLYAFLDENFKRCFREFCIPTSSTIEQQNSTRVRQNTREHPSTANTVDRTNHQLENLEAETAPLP

In turn, `CSCC[C@H](NC(=O)[C@H](Cc1ccccc1)NC(=O)CNC(=O)[C@@H](C)NC(=O)[C@@H](N)Cc1ccc(O)cc1)C(=O)N1CCC[C@H]1C(=O)N[C@@H](CC(C)C)C(=O)N[C@@H](Cc1c[nH]c2ccccc12)C(=O)NCc1cc(C(F)(F)F)cc(C(F)(F)F)c1` displayed a pEC50 in experiment [1] of 8.2 nM. In addition, the Ke in experiment [2] was 10 nM.

The molecule `CSCC[C@H](NC(=O)[C@H](Cc1ccccc1)NC(=O)CNC(=O)[C@@H](C)NC(=O)[C@@H](N)Cc1ccc(O)cc1)C(=O)N1CCC[C@H]1C(=O)N[C@@H](CC(C)C)C(=O)N[C@@H](Cc1c[nH]c2ccccc12)C(=O)OCc1cc(C(F)(F)F)cc(C(F)(F)F)c1` showed a pEC50 in experiment [1] of 7.5 nM.

In turn, `CSCC[C@H](NC(=O)[C@H](Cc1ccccc1)NC(=O)CNC(=O)[C@@H](C)NC(=O)[C@@H](N)Cc1ccc(O)cc1)C(=O)N1CCC[C@H]1C(=O)N[C@@H](CC(C)C)C(=O)N[C@@H](Cc1c[nH]c2ccccc12)C(=O)NCc1ccccc1` displayed a pEC50 in experiment [1] of 7.7 nM. For the same molecule, the Ke in experiment [2] turned out to be 9.9 nM.

(Values after ChEMBL document CHEMBL1140170, “The importance of micelle-bound states for the bioactivities of bifunctional peptide derivatives for delta/mu opioid receptor agonists and neurokinin 1 receptor antagonists” (J Med Chem, 2008).)
